In patent US10610563B2, “Use of ubiquitin-proteasome system inhibitors for treatment of tumors associated with neurofibromatosis type-2” (BIOXCEL CORPORATION, priority 2014, dated 2020):

What was measured:
[1] = test system: Caspase 3/7; assay: Caspase 3/7 activity (Caspase-Glo 3/7) in control haploid cells; settings: 18 hrs
[2] = test system: Caspase 3/7; assay: Caspase 3/7 activity (Caspase-Glo 3/7) in NF2 knockout cell line; settings: 18 hrs
[3] = test system: LATS1; assay: Western blot analysis for LATS1 protein in NF2 knockout cell line; format: cell-based; settings: 3, 10 & 30 nM at 18 hrs; compared to cells not treated
Description: Cells from NF2 knockout cell line 1293-1 cells control Haploid cell line (control wild type cells) are seeded in 6 well plates. […] LATS1 protein was assayed by Western blot (Chemiluminescence) method and both NF2 cell lines are used in the analysis. […] Cell lysates were analysed by western blotting and LATS1 was detected using anti-lats1 antibody (Abcam, ab70561); GAPDH protein levels were assayed using anti-GAPDH antibody as endogenous control. The objective was to quantify the up-regulation/down-regulation of proteins (LATS1) involved in Hippo signaling pathway in NF2 knockout cell line compared to the control cell line. Another objective is to observe the effect of bortezomib treatment in the NF2 knockout cell line, following assays using the Western Blot/WES System.

[4] = test system: wild type haploid (HAP1) cells; assay: Cell proliferation/cytotoxicity assay (MTS / CellTitre Blue) in control HAP1 cell line
[5] = molecular target: T1, 20S proteasome (Homo sapiens, UniProt P28074); assay: 20S proteasome activity (chymotrypsin-like, Suc-LLVY-AMC) in wild type haploid (HAP1) cells; format: cell-based; settings: concentration dependent manner; 18 hrs
Description: (§1) The cells were then washed in PBS (Phosphate buffered saline) and lysed in a buffer containing non-ionic detergent and ATP. The cell lysate was centrifuged at 15,000 g for 30 minutes at 4° C. The supernatant was collected, aliquoted and stored at −80° C. until assay. Chymotrypsin-like peptidase activity of 20S proteasome was measured by using 40 μM Succinyl-Leu-Leu-Val-Tyr-AMC (Boston Biochem: S-280), a fluorogenic peptide substrate, along with 12 nM of recombinant PA28α (Boston Biochem: E-381 or R&D Systems Cat. # E-381-100), in an assay buffer containing 20 mM HEPES pH 7.4 and 0.5 mM EDTA. 20S proteasome cleaved the peptide substrate to release the free fluorophore AMC. […] The compound carfilzomib was used as an internal control for the assay (NF2 cells treated with carfilzomib). Similar assay was also performed with the wild type haploid (HAP1) cells for 18 hrs at different bortezomib concentrations ranging from 1 nM to 300 nM (i.e. 1 nM, 3 nM, 10 nM, 30 nM, 100 nM and 300 nM). The reaction was monitored by measuring the fluorescence through Flex Station 3 (Molecular Devices) or Envision (PerkinElmer) (excitation/emission: 353/442 nm), for 1 hour a 37° C. under kinetic setting. Substrate turnover was estimated as a standard curve generated using standard AMC. The results of 20S proteasome assay are described in FIGS. 1, 2, 3, 4 & 5.

[6] = test system: mesothelioma; assay: Treatment of mesothelioma patients carrying mutations in NF2 or BAP1 genes; format: in vivo; settings: mesothelioma patients with NF2 or BAP1 mutation; 1.3 mg/m^2 intravenous bolus twice in a week, 21-d cycle, up to eight cycles
Description: Mesothelioma patients can be screened for mutation(s) in any of these genes by molecular genetic testing, which is done by the mutation scanning and gene duplication/deletion testing. For example, mutation scanning is done by polymerase chain reaction amplification of the DNA of patients compared to control DNA, and DNA with altered DNA segments may be subjected to the further testing, such as sequence analysis to identify the sequence alterations. Gene duplication/deletion testing is done by quantitative polymerase chain reaction, long-range polymerase chain reaction, multiplex ligation-dependent probe amplification (MLPA), and chromosomal microarray (CMA) that includes the gene/chromosome segment for detection. Molecular genetic testing confirms about the mutation in the NF2 gene or that in the BAP1 gene. […] Bortezomib at a dose of 1.3 mg/m^2 via intravenous bolus for 3 to 5 seconds is given to patients, twice in a week for at least 2 weeks (days 1, 4, 8 and 11) of a 21-d cycle for up to eight cycles.

[7] = in vitro; settings: human, wild type haploid (HAP1) cells
[8] = test system: NF2 knockout cell line 1293-1; assay: Cell proliferation/cytotoxicity assay (MTS / CellTitre Blue) in NF2 knockout cell line
[9] = molecular target: T1, 20S proteasome; assay: 20S proteasome activity (chymotrypsin-like, Suc-LLVY-AMC) in NF2 knockout cells; format: cell-based
Description: as §1

[10] = 0.1 nM to 100 nM, 6 hrs and 12 hrs

CN[C@@H]1C[C@H]2O[C@@](C)([C@@H]1OC)n1c3ccccc3c3c4c(c5c6ccccc6n2c5c31)C(=O)NC4 [Staurosporine]
apoptosis in the Caspase 3/7 assay, positive reference control, wild type haploid cell line ([1]; Staurosporine 1 & 10 μM): induced apoptosis was also observed | apoptosis in the Caspase 3/7 assay, positive reference control, NF2 knockout cell line ([2]; Staurosporine 1 & 10 μM): induced apoptosis was also observed

CC(C)C[C@H](NC(=O)[C@H](Cc1ccccc1)NC(=O)c1cnccn1)B(O)O [bortezomib, [(1R)-3-methyl-1-({(2S)-3-phenyl-2[(pyrazin-2-ylcarbonyl)amino]propanoyl}amino)butyl]boronic acid]
levels of LATS1 protein in NF2 knockout cell line (Western blot) [3]: increased levels of LATS1 | toxicity in the wild type haploid (HAP1) cell line (in words) ([4]; 6 hrs): did not show any significant toxicity | toxicity in the wild type haploid (HAP1) cell line (in words) ([4]; higher concentration (>30 nM), 12, 18 & 24 hrs): toxicity was observed | proteasome activity in the wild type haploid cell line [5]: showed inhibition in proteasome activity | apoptosis/Caspase 3/7 activation in the control haploid cells ([1]; 3 nM onwards, compared to NF2 knockout cell line): minimal increase in apoptosis/Caspase 3/7 activation | delay in tumor progression [6]: 50% | reduction in tumor size [6]: 25% | cytotoxicity at 6 h, 0.1 nM [7]: 2.64% | cytotoxicity at 6 h, 0.3 nM [7]: 4.7% | cytotoxicity at 6 h, 1 nM [7]: 5.65% | cytotoxicity at 6 h, 3 nM [7]: 1.58% | cytotoxicity at 6 h, 10 nM [7]: 0.99% | cytotoxicity at 6 h, 30 nM [7]: 7.63% | cytotoxicity at 6 h, 60 nM [7]: 9.63% | cytotoxicity at 6 h, 100 nM [7]: 6.08% | cytotoxicity at 12 h, 0.1 nM [7]: 3.91% | cytotoxicity at 12 h, 0.3 nM [7]: 2.62% | cytotoxicity at 12 h, 1 nM [7]: 0.2% | cytotoxicity at 12 h, 3 nM [7]: 1.1% | cytotoxicity at 12 h, 10 nM [7]: 5.12% | cytotoxicity at 12 h, 30 nM [7]: 24.9% | cytotoxicity at 12 h, 60 nM [7]: 31.9% | cytotoxicity at 12 h, 100 nM [7]: 26.9% | cytotoxicity at 18 h, 0.1 nM [7]: 6.83% | cytotoxicity at 18 h, 0.3 nM [7]: 6.9% | cytotoxicity at 18 h, 1 nM [7]: 5.78% | cytotoxicity at 18 h, 3 nM [7]: 7.83% | cytotoxicity at 18 h, 10 nM [7]: 7.56% | cytotoxicity at 18 h, 30 nM [7]: 26.3% | cytotoxicity at 18 h, 60 nM [7]: 31% | cytotoxicity at 18 h, 100 nM [7]: 32.7% | cytotoxicity at 24 h, 0.1 nM [7]: 11.2% | cytotoxicity at 24 h, 0.3 nM [7]: 11.4% | cytotoxicity at 24 h, 1 nM [7]: 10.9% | cytotoxicity at 24 h, 3 nM [7]: 16.6% | cytotoxicity at 24 h, 10 nM [7]: 44.8% | cytotoxicity at 24 h, 30 nM [7]: 75% | cytotoxicity at 24 h, 60 nM [7]: 77.4% | cytotoxicity at 24 h, 100 nM [7]: 78.9% | caspase activity (apoptosis) in the NF2 knockout cell line ([2]; 3 nM onwards): significant increase in the caspase activity | cytotoxicity in the NF2 knockout cell line [8, 10]: 10-15% | cytotoxicity in the NF2 knockout cell line (in words) [8, 10]: do not show any significant cytotoxicity | Average % Cytotoxicity in the NF2 knockout cells ([8]; bortezomib 0.1 nM, 6 hrs): −5.18% | Average % Cytotoxicity in the NF2 knockout cells ([8]; bortezomib 0.1 nM, 12 hrs): −21.57% | Average % Cytotoxicity in the NF2 knockout cells ([8]; bortezomib 0.1 nM, 18 hrs): −16.92% | Average % Cytotoxicity in the NF2 knockout cells ([8]; bortezomib 0.1 nM, 24 hrs): −63.43% | Average % Cytotoxicity in the NF2 knockout cells ([8]; bortezomib 0.3 nM, 6 hrs): −5.03% | Average % Cytotoxicity in the NF2 knockout cells ([8]; bortezomib 0.3 nM, 12 hrs): −32.20% | Average % Cytotoxicity in the NF2 knockout cells ([8]; bortezomib 0.3 nM, 18 hrs): −26.59% | Average % Cytotoxicity in the NF2 knockout cells ([8]; bortezomib 0.3 nM, 24 hrs): −71.10% | Average % Cytotoxicity in the NF2 knockout cells ([8]; bortezomib 1 nM, 6 hrs): −1.49% | Average % Cytotoxicity in the NF2 knockout cells ([8]; bortezomib 1 nM, 12 hrs): −28.42% | Average % Cytotoxicity in the NF2 knockout cells ([8]; bortezomib 1 nM, 18 hrs): −25.10% | Average % Cytotoxicity in the NF2 knockout cells ([8]; bortezomib 1 nM, 24 hrs): −66.58% | Average % Cytotoxicity in the NF2 knockout cells ([8]; bortezomib 3 nM, 6 hrs): −0.78% | Average % Cytotoxicity in the NF2 knockout cells ([8]; bortezomib 3 nM, 12 hrs): −24.79% | Average % Cytotoxicity in the NF2 knockout cells ([8]; bortezomib 3 nM, 18 hrs): −19.23% | Average % Cytotoxicity in the NF2 knockout cells ([8]; bortezomib 3 nM, 24 hrs): −68.56% | Average % Cytotoxicity in the NF2 knockout cells ([8]; bortezomib 10 nM, 6 hrs): 8.10% | Average % Cytotoxicity in the NF2 knockout cells ([8]; bortezomib 10 nM, 12 hrs): −11.84% | Average % Cytotoxicity in the NF2 knockout cells ([8]; bortezomib 10 nM, 18 hrs): 14.52% | Average % Cytotoxicity in the NF2 knockout cells ([8]; bortezomib 10 nM, 24 hrs): 29.86% | Average % Cytotoxicity in the NF2 knockout cells ([8]; bortezomib 30 nM, 6 hrs): 14.05% | Average % Cytotoxicity in the NF2 knockout cells ([8]; bortezomib 30 nM, 12 hrs): 17.18% | Average % Cytotoxicity in the NF2 knockout cells ([8]; bortezomib 30 nM, 18 hrs): 35.71% | Average % Cytotoxicity in the NF2 knockout cells ([8]; bortezomib 30 nM, 24 hrs): 37.83% | Average % Cytotoxicity in the NF2 knockout cells ([8]; bortezomib 60 nM, 6 hrs): 16.44% | Average % Cytotoxicity in the NF2 knockout cells ([8]; bortezomib 60 nM, 12 hrs): 16.07% | Average % Cytotoxicity in the NF2 knockout cells ([8]; bortezomib 60 nM, 18 hrs): 38.70% | Average % Cytotoxicity in the NF2 knockout cells ([8]; bortezomib 60 nM, 24 hrs): 43.98% | Average % Cytotoxicity in the NF2 knockout cells ([8]; bortezomib 100 nM, 6 hrs): 10.89% | Average % Cytotoxicity in the NF2 knockout cells ([8]; bortezomib 100 nM, 12 hrs): 15.71% | Average % Cytotoxicity in the NF2 knockout cells ([8]; bortezomib 100 nM, 18 hrs): 39.72% | Average % Cytotoxicity in the NF2 knockout cells ([8]; bortezomib 100 nM, 24 hrs): 45.16% | toxicity in the NF2 knockout cell line (in words) ([8]; higher concentration (>30 nM), 18 hrs and 24 hrs): slight toxicity was observed | proteasome activity in the NF2 knockout cell line (dose dependence) ([9]; 1 nM to 300 nM): dose dependent decrease in proteasome activity | proteasome activity in the NF2 knockout cell line ([9]; from 3 nM onwards, post 6 hrs, 12 hrs, 18 hrs and 24 hrs incubation): decreased significantly | comparison of % inhibition in proteasome activity, NF2 knockout cells vs wild type haploid cells ([9]; post 18 hrs incubation (FIG. 5)): greater inhibition in the NF2 knockout cells
